This note sets out measurements from publication PMC6736360, “P-Glycoprotein–Mediated Efflux Reduces the In Vivo Efficacy of a Therapeutic Targeting the Gastrointestinal Parasite Cryptosporidium” (The Journal of Infectious Diseases, 2019).

In general, efflux ratio refers to the permeability from basolateral to apical divided by that in the opposite direction, in the common usage. The Papp A→B is the apparent permeability from the apical to the basolateral side of a cell layer. In general, Papp B→A refers to how fast a substance crosses the layer from the basolateral side. As a reminder, the EC50 is the concentration that produces a half-maximal response. A word on the solubility: it is the dissolved amount per volume that the medium holds.

Data set [1] in a line: Caco-2 trans-well apparent permeability assay. It is filed as in vitro ADME. The settings on record: human, pH 7.4, Caco-2, 5 µM. Here is the method:
To initially characterize the permeability of BKIs 1294, 1369, and 1318, the software MedChem Designer (Simulations +, Lancaster, CA) was used to predict the Peff. The in vitro apparent permeability (Papp) was carried out by Absorption Systems LP (Exton, PA) with a Caco-2 trans-well assay. Caco-2 cells (clone C2BBe1) were obtained from American Type Culture Collection (Manassas, VA) were grown to confluence on collagen-coated, microporous membranes in 12-well assay plates. The permeability assay buffer was Hanks’ balanced salt solution (HBSS) containing 10 mM HEPES and 15 mM glucose at a pH of 7.4. The buffer in the receiver chamber also contained 1% bovine serum albumin. The dosing solution concentration was 5 µM BKI in assay buffer, and the cell monolayers were dosed on the apical side (A?B) or basolateral side (B?A) and incubated at 37°C with 5% CO2 in a humidified incubator. After 120 minutes, samples were taken from the donor and receiver chambers in duplicate. The Papp was calculated with equation (1) and the percent recovery with equation (2).
Papp = (dCr/dt) × Vr/(A × CA) (1)
Percent Recovery = 100 × ((Vr × Cr^final) + (Vd × Cd^final))/(Vd × […]) (2)
where dCr/dt is the slope of the cumulative concentration in the receiver compartment versus time in µM s^-1; Vr is the volume of the receiver compartment in cm^3; Vd is the volume of the donor compartment in cm^3; A is the area of the insert (1.13 cm^2 for 12-well); CA is the average of the nominal dosing concentration and the measured 120 minute donor concentration in µM; CN is the nominal concentration of the dosing solution in µM; Cr^final is the cumulative receiver concentration in µM at the end of the incubation period; Cd^final is the concentration of the donor in µM at the end of the incubation period.
(§1) To ensure no damage was inflicted to the cell monolayers during the flux period, lucifer yellow flux was also measured post-experimentally for each monolayer. To determine whether BKIs 1294, 1369, and 1318 were substrates of P-gp in vitro, P-gp efflux was characterized using the Caco-2 permeability assay protocol with a few modifications. The dosing solution concentration was 5 μM of BKI in the assay buffer +/- 1 μM valspodar. Cells were first pre-incubated for 30 minutes with HBSS containing +/- 1 μM valspodar. Cell monolayers were dosed on the apical side (A?B) or basolateral side (B?A), and incubated at 37°C with 5% CO2 in a humidified incubator. Samples were taken from the donor and receiver chambers at 120 minutes. Each determination was performed in duplicate.

The nature of data set [2]: Mouse oral plasma pharmacokinetics with or without elacridar. It is filed as in vivo, mice. As to conditions: for AUC(0-inf) / Cmax / Tmax: mouse, plasma, po, mouse plasma, oral, 1369 60 mg/kg, 1318 50 mg/kg. Here is the method: Mouse oral pharmacokinetic (PK) studies were performed as previously described^1. Briefly, blood samples were taken by tail bleeding into heparinized tubes at designated time points and centrifuged to obtain plasma. The samples were frozen and stored at -20°C until extraction and analysis. PK calculations of Tmax, Cmax, AUC, oral clearance, and half-life were performed using Pharsight Phoenix WinNonlin software (Certara, St. Louis, MO).

In a further data set the target is T1, P-gp (Homo sapiens, UniProt P08183).
T1 construct: endogenous in cells; host or cells: Caco-2 cells (clone C2BBe1, ATCC); assay run by Absorption Systems LP
The data set is described as follows: Caco-2 P-gp efflux assay +/- valspodar. The data set is classed as in vitro ADME. The settings on record: for P-gp Substrate Classification: Caco-2.
Description: Given the well-known role of P-gp in the efflux of many diverse drugs, the adenosine triphosphate–binding cassette (ABC) transporter was specifically chosen for initial studies, to identify the transporter responsible for BKI1318’s relatively low Papp. A Caco-2 system with overexpression of P-gp was used to verify the role of P-gp in BKI1318 transport (Supplementary Table 2). […] It should be noted that this experiment characterized the importance of P-gp with a single concentration of BKI1318. The kinetics of BKI1318 transport mediated by P-gp are still unknown, and it is not clear how the fraction of absorption mediated by P-gp transport will change with different concentrations of BKI1318.
as §1
(In general: Caco-2 cells form a polarised layer with tight junctions and transporters.)

A further data set has as its system Cryptosporidium parvum. The data set is described as follows: C. parvum growth inhibition, nonpolarized HCT-8 coculture assay. It is filed as cell-based. As to conditions: Cryptosporidium parvum. The source says: Information regarding C. parvum growth inhibition by BKIs, the hollow fiber model, liquid chromatography–tandem mass spectrometry (LC-MS/MS) methods, and the interferon γ (IFN-γ) knockout (KO) mouse model of C. parvum infection has been described in detail previously [[15], [20–23]]. Information on BKI permeability, LC-MS/MS quantification of elacridar, and quantification of Cryptosporidium by polymerase chain reaction analysis is described in the Supplementary Materials. Unless noted otherwise, statistical significance was determined with an unpaired Student t test, using a significance level of 0.05.
To evaluate the potential impact of P-gp efflux on BKI1318 in vitro efficacy, in vitro assays with polarized and nonpolarized HCT-8 cells were evaluated. The nonpolarized HCT-8 coculture assay to screen anti-Cryptosporidium drug candidates has been previously reported by us in detail. […] Based on the reported elacridar half maximal inhibitor concentration for the inhibition of P-gp, the P-gp activity was predicted to be reduced with both elacridar concentrations. […] Elacridar alone had no effect on C. parvum levels.

Another data set has as its system C. parvum. Nature of the data set: IFN-γ KO mouse model of Cryptosporidium infection. It is filed as in vivo, mice. The settings on record: for Effect of elacridar coadministration on in vivo efficacy: IFN-γ KO mice, once daily for 5 days. As to the method: Efficacy in female IFN-γ KO mice (B6.129S7-Ifngtm1Ts/J; Jackson Laboratories) aged 8–10 weeks was evaluated as previously described. Beginning on day 6 after infection, mice were dosed with 30 mg/kg BKI1318 suspended in 0.2 mL of vehicle, 15 mg/kg elacridar in 0.1 mL of vehicle followed 15 minutes later by 30 mg/kg BKI1318 in 0.1 mL of vehicle, or 0.2 mL of vehicle only once daily for 5 days. Fecal specimens were collected daily from each group and weighed. Each fecal sample was checked for luminescence on the day of collection, and the number of relative light units was determined and normalized to fecal sample weights.

Data set [3] can be described thus: In vitro solubility at pH 2 and 6.5. It is filed as physicochemical. Here is the method:
Figure 1. Structures, in vitro efficacy, and physicochemical properties of bumped kinase inhibitors (BKIs). […] Solubilities for each BKI were measured at pH 2 and 6.5, to represent the stomach and small intestinal environments, respectively. The human effective permeability (Peff) was predicted as described in Materials and Methods.

The mark [4] stands for this setting: mice, 50 mg/kg oral, 30 mg/kg elacridar, P < .05.
Setting [5] is: 30 mg/kg elacridar 15 minutes before, read-out: AUC0-inf w/ Elacridar.
The mark [6] stands for this setting: 30 mg/kg elacridar 15 minutes before, read-out: Cmax w/ Elacridar.
Where [7] appears, read: 30 mg/kg elacridar 15 minutes before, read-out: Tmax w/ Elacridar.
Setting [8] is: HCT-8, in vitro, read-out: C. parvum EC50.
Setting [9] is: pH 2, represents stomach, read-out: Solubility (pH 2).

Values after ≈ are worked out from the molar mass of the structure shown. “Also recorded” adds a separate entry of the source. Like-named read-outs stand apart in the source and are kept apart here. Some results are limits rather than exact numbers.

T1 sequence (P08183 whole entry): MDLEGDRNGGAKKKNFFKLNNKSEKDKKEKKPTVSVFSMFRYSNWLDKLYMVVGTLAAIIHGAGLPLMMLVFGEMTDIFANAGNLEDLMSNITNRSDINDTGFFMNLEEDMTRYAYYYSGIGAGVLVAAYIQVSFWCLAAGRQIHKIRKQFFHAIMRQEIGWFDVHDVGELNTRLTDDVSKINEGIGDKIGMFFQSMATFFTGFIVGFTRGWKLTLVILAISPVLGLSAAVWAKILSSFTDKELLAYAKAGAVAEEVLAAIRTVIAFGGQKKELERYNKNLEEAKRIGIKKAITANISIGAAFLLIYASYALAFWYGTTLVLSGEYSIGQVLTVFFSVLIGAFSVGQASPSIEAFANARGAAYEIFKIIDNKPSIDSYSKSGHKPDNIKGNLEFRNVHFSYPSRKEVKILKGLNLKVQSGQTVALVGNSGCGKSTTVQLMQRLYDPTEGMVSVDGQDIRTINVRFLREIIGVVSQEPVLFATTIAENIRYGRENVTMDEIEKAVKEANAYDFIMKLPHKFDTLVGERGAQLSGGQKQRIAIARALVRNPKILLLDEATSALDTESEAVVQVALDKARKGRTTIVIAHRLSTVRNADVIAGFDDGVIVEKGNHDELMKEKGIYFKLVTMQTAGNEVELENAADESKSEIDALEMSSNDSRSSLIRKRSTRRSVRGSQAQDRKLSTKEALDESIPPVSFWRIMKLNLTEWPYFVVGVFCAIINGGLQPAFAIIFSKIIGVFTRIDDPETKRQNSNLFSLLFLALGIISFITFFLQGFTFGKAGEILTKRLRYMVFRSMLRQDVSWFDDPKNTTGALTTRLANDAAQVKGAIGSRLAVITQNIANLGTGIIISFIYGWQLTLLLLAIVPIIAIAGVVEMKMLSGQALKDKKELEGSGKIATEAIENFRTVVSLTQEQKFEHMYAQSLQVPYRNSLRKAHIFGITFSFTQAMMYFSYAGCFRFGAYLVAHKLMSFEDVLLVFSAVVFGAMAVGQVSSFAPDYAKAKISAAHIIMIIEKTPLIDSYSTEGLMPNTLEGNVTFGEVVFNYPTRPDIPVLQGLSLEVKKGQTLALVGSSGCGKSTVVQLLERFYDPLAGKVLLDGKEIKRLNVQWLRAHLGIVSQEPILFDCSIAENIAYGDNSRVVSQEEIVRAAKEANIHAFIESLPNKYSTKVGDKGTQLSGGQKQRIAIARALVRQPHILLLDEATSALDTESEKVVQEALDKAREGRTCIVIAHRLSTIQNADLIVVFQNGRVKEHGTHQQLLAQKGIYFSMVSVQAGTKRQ

With `CCOc1ccc2cc(-c3nn(CC4CCNCC4)c4ncnc(N)c34)ccc2n1` [BKI1318], the efflux ratio at 120 min, 5 µM in data set [1] is 69; on P-gp (human, pH 7.4, Caco-2 with overexpression of P-gp, 5 μM, no inhibitor), 19. Besides, the apical-to-basolateral permeability (Papp A→B) at 120 min, 5 µM in data set [1] worked out at 0.29 ×10⁻⁶ cm/s. Further, the Papp B→A at 120 min, 5 µM in data set [1] was found to be 20.3 ×10⁻⁶ cm/s. Besides, the “Oral clearance with elacridar, fold greater than observed for BKI1369” value in data set [2] (mice) was 5 fold. Besides, the “Oral clearance (clearance/bioavailability) with elacridar coadministration” value in data set [2] (mice, 50 mg/kg oral, 30 mg/kg elacridar) is 207 mL/h. Also, the “Increase of plasma AUC0–∞ by elacridar coadministration” value in data set [2] (setting [4]) is listed as “approximately 2 fold”. In data set [2] (setting [4]), the “Increase of plasma Cmax by elacridar coadministration” value was “approximately 2 fold”. Besides, the AUC(0-inf) in data set [2] (setting [5]) was 12 ± 1.6 µM·h; in data set [2] (alone, read-out: AUC0-inf) it was 6.6 ± 1.7 µM·h. Also, the Cmax in data set [2] (setting [6]) amounted to 1800 nM; in data set [2] (alone, read-out: Cmax), 1000 nM. In addition, the Tmax in data set [2] (setting [7]) amounted to 2 h; in data set [2] (alone, read-out: Tmax), 2.3 h. In addition, the “P-gp Substrate Classification” value at P-gp is “Positive”. Further, the EC50 in the data set with Cryptosporidium parvum (setting [8]) stood at 3200 nM; in the data set with Cryptosporidium parvum (nonpolarized HCT-8 cells, BKI1318 alone, read-out: EC50 (±standard error) against C. parvum), 1600 ± 1500 nM. In the data set on C. parvum (60 mg/kg once daily for 5 days, without elacridar), the “Reduction in C. parvum oocyst excretion” value was less than 1 log. Besides, the “Effect of elacridar coadministration on in vivo efficacy” value in the data set on C. parvum is given as “increased the level by which BKI1318 reduced the Cryptosporidium burden; also recorded: improvement in efficacy”. In addition, the solubility in data set [3] (setting [9]) was greater than 100 µM; in data set [3] (pH 6.5, represents small intestine, read-out: Solubility (pH 6.5)), 56 µM (≈ 22.6 µg/mL).

With `CCOc1ccc2cc(-c3nn(CC4CCN(C)CC4)c4ncnc(N)c34)ccc2n1` [BKI1369], the Papp A→B at 120 min, 5 µM in data set [1] is 12.4 ×10⁻⁶ cm/s. In addition, the Papp B→A at 120 min, 5 µM in data set [1] was determined as 32.7 ×10⁻⁶ cm/s. Moreover, in data set [2] (mice, 60 mg/kg oral, 30 mg/kg elacridar), the “Change in plasma pharmacokinetics when elacridar administered before” value is recorded as “not a significant change; also recorded: not significantly different”. Moreover, the AUC(0-inf) was determined as 91.4 ± 5 µM·h in data set [2] (setting [5]) and 75.6 ± 8.9 µM·h in data set [2] (alone, read-out: AUC0-inf). Moreover, the Cmax in data set [2] (setting [6]) came out at 4100 ± 300 nM; in data set [2] (alone, read-out: Cmax), 4200 nM. Also, the Tmax turned out to be 4 ± 1.6 h in data set [2] (setting [7]) and 2 h in data set [2] (alone, read-out: Tmax). Moreover, the “P-gp Substrate Classification” value on P-gp is on record as “Negative”. The EC50 with Cryptosporidium parvum (setting [8]) turned out to be 2300 nM. Also, the “Effect of elacridar coadministration on in vivo efficacy” value in the data set on C. parvum was “no effect; also recorded: did not affect”. For the same molecule, the solubility in data set [3] (setting [9]) was greater than 100 µM.
